Assay results from patent US20100298314A1, “NOVEL JNK INHIBITORS” (Schering Corporation, priority 2006, published 2010).
Several values for one entry are separate records, joined by “and”; a condition that tells them apart may be missing. Equal values may be shown once. Read-outs that look alike come from different tables or passages of the source.

What was measured:
Assay type in all cases: biochemical
JNK1 = JNK1 (Homo sapiens, UniProt P45983); assay: JNK1 kinase DELFIA (phosphorylation of biotinylated GST-ATF2)
JNK1, sequence (P45983 whole entry, species assumed): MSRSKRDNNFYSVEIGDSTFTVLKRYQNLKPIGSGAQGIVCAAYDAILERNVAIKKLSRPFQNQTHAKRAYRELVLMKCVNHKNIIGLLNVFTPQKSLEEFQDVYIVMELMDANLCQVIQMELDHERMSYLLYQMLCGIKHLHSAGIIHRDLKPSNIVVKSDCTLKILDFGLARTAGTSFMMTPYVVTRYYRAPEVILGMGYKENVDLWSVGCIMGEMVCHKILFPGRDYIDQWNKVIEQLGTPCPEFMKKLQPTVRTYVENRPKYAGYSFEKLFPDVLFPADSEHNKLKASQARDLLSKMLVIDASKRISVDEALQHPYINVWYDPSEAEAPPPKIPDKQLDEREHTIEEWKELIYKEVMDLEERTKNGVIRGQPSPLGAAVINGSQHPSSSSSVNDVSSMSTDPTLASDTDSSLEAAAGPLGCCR
Experimental: (§1) Before initiation of kinase reactions, compounds were pre-incubated with the enzyme for 10 minutes. Pre-incubation reactions contained 50 mM HEPES pH 7.3, 10 mM MgCl2, 1 mM DTT, 75 mM NaCl, 1 mM EDTA, 1 mM EGTA, 0.01% CHAPS, 2 nM JNK1, 6 ug/mL biotinylated GST-ATF2, 0.1 mg/ml BSA, 5% DMSO and 0-100 μM compound in a total volume of 40 μL. After a 10 minute room temperature pre-incubation, 10 μL of 35 μM ATP was added to start the reaction (final concentration of ATP=7 uM). Reactions were incubated at room temperature for 30 minutes. A small aliquot (10 uL) was taken and quenched by adding into 190 uL of DELFIA Assay buffer containing 100 mM EDTA. The amount of phosphate transferred to biotinylated GST-ATF2 was measured using the Dissociation Enhanced Lanthanide Fluorescence Immuno-assay (DELFIA) from Perkin Elmer according to manufacturers protocol. Briefly, biotinylated GST-ATF2 was captured on streptavidin coated plates for 1 hour, washed twice, then incubated for 1 hour with a 1:1000 dilution of rabbit-anti-phospho-ATF2 antibody and a 1:3500 dilution of Europium-labeled anti-rabbit secondary antibody. Free antibody was removed with six washes, Europium was dissociated from the antibody, and Europium fluorescence was measured using an excitation wavelength of 340 nm and an emission wavelength of 615 nm. JNK2 and JNK3 kinase reactions were carried out similarly, with the exception that the final concentration of ATP was 4 uM and 2 uM, respectively.

JNK2 = JNK2 (Homo sapiens, UniProt P45984); assay: JNK2 kinase DELFIA (phosphorylation of biotinylated GST-ATF2); conditions: final ATP 4 uM, reported as range for a group
JNK2, sequence (P45984 whole entry, species assumed): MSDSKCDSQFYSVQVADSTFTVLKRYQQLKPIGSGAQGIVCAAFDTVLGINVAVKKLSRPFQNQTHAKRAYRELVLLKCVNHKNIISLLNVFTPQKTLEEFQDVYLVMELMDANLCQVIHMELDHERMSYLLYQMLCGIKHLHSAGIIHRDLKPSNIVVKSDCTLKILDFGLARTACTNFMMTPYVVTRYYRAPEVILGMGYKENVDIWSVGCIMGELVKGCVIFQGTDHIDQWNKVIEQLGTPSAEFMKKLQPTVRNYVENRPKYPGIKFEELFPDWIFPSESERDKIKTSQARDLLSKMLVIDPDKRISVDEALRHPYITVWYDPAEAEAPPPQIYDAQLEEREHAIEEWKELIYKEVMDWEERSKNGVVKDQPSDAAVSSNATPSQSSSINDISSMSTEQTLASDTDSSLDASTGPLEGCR
Experimental: as §1

JNK3 = JNK3 (Homo sapiens, UniProt P53779); assay: JNK3 kinase DELFIA (phosphorylation of biotinylated GST-ATF2); conditions: final ATP 2 uM
JNK3, sequence (P53779 whole entry, species assumed): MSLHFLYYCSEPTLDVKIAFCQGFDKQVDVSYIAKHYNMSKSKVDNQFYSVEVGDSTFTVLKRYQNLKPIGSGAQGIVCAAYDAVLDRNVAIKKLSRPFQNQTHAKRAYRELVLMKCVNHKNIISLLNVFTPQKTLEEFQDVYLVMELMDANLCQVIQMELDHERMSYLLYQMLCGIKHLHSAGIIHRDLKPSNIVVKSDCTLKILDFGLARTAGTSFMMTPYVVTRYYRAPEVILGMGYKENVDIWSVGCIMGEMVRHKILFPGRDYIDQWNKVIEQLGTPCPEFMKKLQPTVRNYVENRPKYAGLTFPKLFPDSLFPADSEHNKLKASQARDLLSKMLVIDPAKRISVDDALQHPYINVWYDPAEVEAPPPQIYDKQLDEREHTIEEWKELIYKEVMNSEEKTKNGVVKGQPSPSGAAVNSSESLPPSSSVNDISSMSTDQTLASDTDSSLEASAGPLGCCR
Experimental: as §1

[1] = DELFIA, 2 nM JNK1, final ATP 7 uM, 10 min pre-incubation, reported as range for a group

## CC(C)C[C@@H](CO)NC(=O)c1c(-c2ccsc2)nc2c(C(=O)NCc3ccc4nc(C(C)C)[nH]c4c3)cccn12 [Compound 114]
JNK1; [1]
  IC50: 6 to 20 nM
JNK2
  IC50: 4 to 46 nM
JNK3
  IC50: 9 to 50 nM

## Cc1nc2ccc(CNC(=O)c3cccn4c(C(=O)N[C@H](CO)CC(C)C)c(-c5ccsc5)nc34)cc2s1 [Compound 130]
JNK1; [1]
  IC50: 6 to 100 nM
JNK2
  IC50: 4 to 46 nM
JNK3
  IC50: 9 to 50 nM

## CC(C)C[C@@H](CO)NC(=O)c1c(-c2ccsc2)nc2c(C(=O)NCc3cnn(-c4ccccc4)c3)cccn12 [Compound 216]
JNK1; [1]
  IC50: 6 to 20 nM
JNK2
  IC50: 4 to 46 nM
JNK3
  IC50: 9 to 50 nM

## Cc1cccc(-n2cc(CNC(=O)c3cccn4c(C(=O)N[C@H](CO)CC(C)C)c(-c5ccsc5)nc34)cn2)c1 [Compound 218]
JNK1; [1]
  IC50: 6 to 20 nM
JNK2
  IC50: 4 to 46 nM
JNK3
  IC50: 9 to 50 nM

## Cc1ccc(-n2cc(CNC(=O)c3cccn4c(C(=O)N[C@H](CO)CC(C)C)c(-c5ccsc5)nc34)cn2)cc1 [Compound 219]
JNK1; [1]
  IC50: 6 to 20 nM
JNK2
  IC50: 4 to 46 nM
JNK3
  IC50: 9 to 50 nM

## CC(C)C[C@H](CO)NC(=O)c1c(-c2ccsc2)nc2c(C(=O)NCc3ccc(N4CCCC4)nc3)cccn12 [Compound 291]
JNK1; [1]
  IC50: 6 to 100 nM
JNK2
  IC50: 107 to 173 nM
JNK3
  IC50: 54 to 98 nM

## CC(C)C[C@@H](CO)NC(=O)c1c(-c2ccsc2)nc2c(C(=O)NCc3ccnc(N4CCCC4)c3)cccn12 [Compound 296]
JNK1; [1]
  IC50: 6 to 100 nM and 6 to 20 nM
JNK2
  IC50: 4 to 46 nM
JNK3
  IC50: 9 to 50 nM

## CC(C)C[C@@H](CO)NC(=O)c1c(-c2ccsc2)nc2c(C(=O)NCc3ccc(N4CCN(C)CC4)nc3)cccn12 [Compound 299]
JNK1; [1]
  IC50: 6 to 100 nM
JNK2
  IC50: 4 to 46 nM
JNK3
  IC50: 9 to 50 nM

## CC(C)C[C@@H](CO)NC(=O)c1c(-c2ccsc2)nc2c(C(=O)NCc3ccc(N4CCOCC4)nc3)cccn12 [Compound 300]
JNK1; [1]
  IC50: 6 to 100 nM and 6 to 20 nM
JNK2
  IC50: 4 to 46 nM
JNK3
  IC50: 9 to 50 nM

## CC(C)C[C@@H](CO)NC(=O)c1c(-c2ccsc2)nc2c(C(=O)NCc3ccc(N4CCCCC4)nc3)cccn12 [Compound 301]
JNK1; [1]
  IC50: 6 to 100 nM
JNK2
  IC50: 4 to 46 nM
JNK3
  IC50: 9 to 50 nM

## CC(C)C[C@@H](CO)NC(=O)c1c(-c2ccsc2)nc2c(C(=O)NCc3ccc(-c4cccnc4)nc3)cccn12 [Compound 306]
JNK1; [1]
  IC50: 6 to 100 nM and 6 to 20 nM
JNK2
  IC50: 4 to 46 nM
JNK3
  IC50: 9 to 50 nM

## CC(C)C[C@@H](CO)NC(=O)c1c(-c2ccsc2)nc2c(C(=O)NCc3ccc(-c4ccncc4)nc3)cccn12 [Compound 307]
JNK1; [1]
  IC50: 6 to 100 nM and 6 to 20 nM
JNK2
  IC50: 4 to 46 nM
JNK3
  IC50: 9 to 50 nM

## Cc1ccn(-c2ccc(CNC(=O)c3cccn4c(C(=O)N[C@H](CO)CC(C)C)c(-c5ccsc5)nc34)cn2)n1 [Compound 323]
JNK1; [1]
  IC50: 6 to 100 nM
JNK2
  IC50: 4 to 46 nM
JNK3
  IC50: 9 to 50 nM

## CC(C)C[C@@H](CO)NC(=O)c1c(-c2ccsc2)nc2c(C(=O)NCc3ccc(N)nc3)cccn12 [Compound 327]
JNK1; [1]
  IC50: 6 to 100 nM
JNK2
  IC50: 4 to 46 nM
JNK3
  IC50: 54 to 98 nM

## CC(C)C[C@@H](CO)NC(=O)c1c(-c2ccccc2)nc2c(C(=O)NCc3ccc4nc(N)sc4c3)cccn12 [Compound 451]
JNK1; [1]
  IC50: 6 to 100 nM
JNK2
  IC50: 4 to 46 nM
JNK3
  IC50: 9 to 50 nM

## CC(C)C[C@@H](CO)NC(=O)c1c(-c2ccc(F)cc2)nc2c(C(=O)NCc3ccc4nc(N)sc4c3)cccn12 [Compound 452]
JNK1; [1]
  IC50: 6 to 100 nM
JNK2
  IC50: 52 to 94 nM
JNK3
  IC50: 54 to 98 nM

## CCc1nc2c(C(=O)NCc3ccc4nc(N)sc4c3)cccn2c1C(=O)N[C@H](CO)CC(C)C [Compound 456]
JNK1; [1]
  IC50: 6 to 100 nM
JNK2
  IC50: 4 to 46 nM
JNK3
  IC50: 9 to 50 nM

## CCc1nc2c(C(=O)NCc3ccc4nc(C)n(C)c4c3)cccn2c1C(=O)N[C@H](CO)CC(C)C [Compound 463]
JNK1; [1]
  IC50: 6 to 20 nM
JNK2
  IC50: 4 to 46 nM
JNK3
  IC50: 9 to 50 nM

## CC(C)C[C@@H](CO)NC(=O)c1c(-c2ccccn2)nc2c(C(=O)NCc3ccc4nc(N)sc4c3)cccn12 [Compound 478]
JNK1; [1]
  IC50: 6 to 100 nM and 6 to 20 nM and 6 to 10 nM
JNK1; read-out: JNK 1 IC50
  IC50: 10 nM
JNK2
  IC50: 4 to 46 nM
JNK3
  IC50: 9 to 50 nM

## Cc1nc2ccc(CNC(=O)c3cccn4c(C(=O)N[C@H](CO)CC(C)C)c(-c5ccccn5)nc34)cc2[nH]1 [Compound 479]
JNK1; [1]
  IC50: 6 to 100 nM and 6 to 20 nM and 6 to 10 nM
JNK2
  IC50: 4 to 46 nM
JNK3
  IC50: 9 to 50 nM

## Cc1nc2ccc(CNC(=O)c3cccn4c(C(=O)N[C@H](CO)CC(C)C)c(-c5ccccn5)nc34)cc2n1C [Compound 483]
JNK1; [1]
  IC50: 6 to 100 nM and 6 to 20 nM
JNK1; read-out: JNK 1 IC50
  IC50: 11 nM
JNK2
  IC50: 4 to 46 nM
JNK3
  IC50: 9 to 50 nM

## CC(C)C[C@@H](CO)NC(=O)c1c(-c2cccs2)nc2c(C(=O)NCc3ccc4nc(N)sc4c3)cccn12 [Compound 542]
JNK1; [1]
  IC50: 6 to 100 nM
JNK2
  IC50: 4 to 46 nM
JNK3
  IC50: 9 to 50 nM

## CC(C)C[C@@H](CO)NC(=O)c1c(-c2cc(F)cc(F)c2)nc2c(C(=O)NCc3ccc4nc(N)sc4c3)cccn12 [Compound 544]
JNK1; [1]
  IC50: 6 to 100 nM
JNK1; read-out: JNK 1 IC50
  IC50: 23 nM
JNK2
  IC50: 4 to 46 nM
JNK3
  IC50: 9 to 50 nM

## Cc1nc2ccc(CNC(=O)c3cccn4c(C(=O)N[C@H](CO)CC(C)C)c(C)nc34)cc2[nH]1 [Compound 599]
JNK1; [1]
  IC50: 6 to 100 nM
JNK2
  IC50: 4 to 46 nM
JNK3
  IC50: 9 to 50 nM

## Cc1cccc(-n2cc(CNC(=O)c3cccn4c(C(=O)N[C@H](CO)CC(C)C)cnc34)cn2)c1 [Compound 605]
JNK1; [1]
  IC50: 6 to 100 nM
JNK1; read-out: JNK 1 IC50
  IC50: 21 nM
JNK2
  IC50: 4 to 46 nM
JNK3
  IC50: 9 to 50 nM
